Reference: patent US20120232158A1, “METHODS OF TREATING HYPERACIDIC DISORDERS” (Yale Univeristy, priority 2008, published 2012)
“Also recorded” adds a separate entry of the source.

Tests used:
Assay type in all cases: cell-based
[1] = system: gastric glands (gastric parietal cells); assay: Acid secretion by superfused gastric glands isolated from control Casr+/+; Gcm2−/− mice (rate of recovery after acid load, BCECF); details: FIG. 1
Description: (§1) Male (Casr^+/+; Gcm2^−/−) or CaSR knockout (Casr^−/−; Gcm2^−/−) mice weighing 22-27 grams (upper panel) or male Sprague-Dawley rats weighing 220-275 grams (lower panel) were fasted with ad lib access to water for 18 hours prior to experimentation. The animals were exposed to an overdose of isofluorane and the stomach was removed by a total gastrectomy. The corpus was removed from the stomach and sectioned at 4° C. All mice were generated at Yale University from a breeding colony. Male Sprague-Dawley rats were purchased from Charles River Laboratories Inc. (Wilmington, Mass.). All animals were cared for according to the standard protocols of the Yale University Animal Care and Use Committee.
(§2) The HEPES-Ringer solution contained (in mmol/L): NaCl 125; KCl 5; MgCl2 0.5; HEPES 22, CaCl2 0.1 or 1.6; glucose 10, pH=7.4. […]
(§3) Individual gastric glands were hand dissected and transferred to the stage of an inverted microscope where they were loaded with the intracellular pH marker BCECF. […] The rate of recover was then calculated in the presence or absence of the calcimimetic Compound A at either 10 or 100 nM concentration.
(§4) The rate of recovery in the absence of Na was recorded for each parietal cell and then summated and the mean ±SEM of the data for each gland and then for each animal determined. […] The recovery rates are determined as the rate of recovery following an acid load. […]

[2] = system: gastric glands (gastric parietal cells); assay: Acid secretion by superfused gastric glands isolated from Sprague-Dawley rats (rate of recovery after acid load, BCECF); details: FIG. 1
Description: as §1, §2, §3, §4

[3] = system: gastric glands (gastric parietal cells); assay: Acid secretion by superfused gastric glands of CaSR knockout (Casr−/−; Gcm2−/−) mice; details: glands from Casr−/−, FIG. 2; for acid secretion stimulated by natural secretagogue: 100 μM, Gcm2−/− mice
Description: as §1
The HEPES-Ringer solution contained (in mmol/L): NaCl 125; KCl 5; MgCl2 0.5; HEPES 22, CaCl2 0.1 or 1.6; glucose 10, pH=7.4. The solution was bubbled with 100% O2. 2′,7′-bis′(carboxyethyl)-5-(6)-carboxyfluorescein (BCECF) from Invitrogen (Seattle, Wash., USA) and stock solutions were prepared in dimethyl sulphoxide (DMSO).
(§5) Individual gastric glands were hand dissected and transferred to the stage of an inverted microscope where they were loaded with the intracellular pH marker BCECF. Once loaded with the dye the glands were superfused with normal HEPES Ringer solution at 37° C. and at a pH of 7.4 for 5 minutes. The glands were then challenged with 20 mM NH4Cl and 0 mM Na to induce an acid load within the cell. The rate of recover was then calculated in the presence or absence of the calcimimetic Compound A at either 10 or 100 nM concentration.
(§6) The rate of recovery in the absence of Na was recorded for each parietal cell and then summated and the mean ±SEM of the data for each gland and then for each animal determined. […] The recovery rates are determined as the rate of recovery following an acid load. This rate determines how fast the cell can extrude protons and provides a measure of the activity of the gastric H,K-ATPase proton pump.
Gastric acid secretion is measured in Casr^−/−; Gcm2^−/− mice that lack a functional CaSR.

[4] = system: gastric glands (gastric parietal cells); assay: Secretagogue (histamine) induced acid secretion in superfused gastric glands from Sprague-Dawley rats; details: rat glands treated with secretagogue (histamine) first (bars B, C, D); FIG. 6
Description: The HEPES-Ringer solution contained (in mmol/L): NaCl 125; KCl 5; MgCl2 0.5; HEPES 22, CaCl2 0.1 or 1.6; glucose 10, pH=7.4. The solution was bubbled with 100% O2. 2′,7′-bis′(carboxyethyl)-5-(6)-carboxyfluorescein (BCECF) from Invitrogen (Seattle, Wash., USA) and stock solutions were prepared in dimethyl sulphoxide (DMSO). […]

[5] = system: gastric glands (gastric parietal cells); assay: Secretagogue (acetyl choline) induced acid secretion in mouse gastric glands with functional CaSR; details: 100 μM acetyl choline, calcilytic at 10 or 100 nM, mice with functional CaSR (Casr+/+; Gcm2−/−), FIG. 3
[6] = system: gastric glands (gastric parietal cells); assay: Acid secretion by superfused gastric glands from mice with constitutively active gastric H,K-ATPase proton pump; details: mice with functional CaSR and constitutively active H,K-ATPase; FIG. 5
Description: as §5, §6
These mice have a mutation in the gastric H,K-ATPase proton pump that renders the pump constitutively active.

Structure (SMILES): COc1cccc(C(C)NCCCc2ccccc2Cl)c1 (stereo not drawn) [Compound A, 3-(2-chlorophenyl)-N-(1-(3-(methyloxy)phenyl)ethyl)-1-propanamine]
- concentration dependence of the effect on acid secretion [1]: concentration dependent
- concentration dependence of the effect on acid secretion [2]: concentration dependent
- effect on basal acid secretion ([3]; Gcm2−/− mice lacking functional CaSR): unable to increase acid secretion
- effect on secretagogue induced acid secretion [4]: decreased acid secretion

Structure (SMILES): CC(C)(Cc1ccc2ccccc2c1)NCC(O)COc1cccc(Cl)c1C#N (stereo not drawn) [Compound B, 2-chloro-6-(2-hydroxy-3-(2-methyl-1-(naphthalen-2-yl)propan-2-ylamino)propoxy)benzonitrile]
- inhibition of secretagogue induced acid secretion [5]: inhibition of acid secretion in a concentration dependent fashion
- inhibition of secretagogue induced acid secretion ([5]; listed as compound B): reduces acid secretion in a dose-dependent manner
- inhibition of acid secretion [6]: suppresses gastric acid secretion in a concentration-dependent fashion; also recorded: reduce acid secretion

Structure (SMILES): C[N+](C)(C)CCOC(N)=O [carbachol]
- acid secretion stimulated by natural secretagogue [3]: able to increase acid secretion; also recorded: increases acid secretion

Structure (SMILES): NCCc1c[nH]cn1 [histamine]
- acid secretion stimulated by natural secretagogue [3]: able to increase acid secretion; also recorded: increases acid secretion
